# Assay results from publication PMC9068901, “Novel Inhibitors and Activity-Based Probes Targeting Trypsin-Like Serine Proteases” (Frontiers in Chemistry, 2022).
# Like-named read-outs stand apart in the source and are kept apart here. *1 amine or outer side, *2 acyl side, *3 side chain or, on linkers, in order; H or OH if unused. Where a SMILES comes first, the peptide text is derived from it. Side-chain parts run from the residue outwards. [ ]: non-standard residue; d: D form. The star is where a group is joined. Biotin = O=C1N[C@H]2[C@H](CS[C@H]2CCCCC(=O)*)N1; Gly(N-(CH2)3-guanidino) = N=C(N)NCCCNCC(=O)O; Glutaryl = O=C(CCCC(=O)[*:2])[*:1]; X4 = O=C(Oc1c(F)c(F)c(F)c(F)c1F)*; X2 = O=C1CCC(=O)N1OC(=O)*; X3 = C#Cc1cccc(N*)c1; Ahx = NCCCCCC(=O)O; X1 = O=C(n1cncn1)*
# Tests used:
# [1] = target: T1, human trypsin (Homo sapiens, UniProt P07477); experiment: Determination of inhibitor constants against trypsin (progress curves, Cbz-Gly-Gly-Arg-AMC); type: biochemical; conditions: for k3: first-order rate constant; for k3/Ki: second-order rate constant
# Method: (§1) Recombinant protease activities were assessed using the cognate fluorogenic substrates (final concentration 50 μM) as follows: trypsin (Cbz-Gly-Gly-Arg-AMC), neutrophil elastase (MeO-Suc-Ala-Ala-Pro-Val-AMC) and chymotrypsin (Suc-Ala-Ala-Pro-Phe-AMC). The assay in the presence or absence of protease inhibitors at a range of final concentrations was performed using a standard microtitre plate format. Substrate hydrolysis, at 37°C, was monitored over a 60 min period by measuring the rate of increase in fluorescence (at λex 360 nm, λem 480 nm) using a FLUOstar Optima microplate reader (BMG Labtech).
# A broad range of inhibitor concentrations were prepared from a 10 mM stock solution of the five test compounds (NAP851, NAP966, NAP987, NAP884 and NAP858) in N,N-dimethyformamide (DMF). The fluorogenic substrate, Cbz-Gly-Gly-Arg-AMC, was diluted in assay buffer (PBS, pH 7.4) and used at a fixed concentration of 50 μM. All inhibition assays were performed in microtitre plates maintained at 37°C in a final volume of 100 μL. The reaction was initiated by the addition of human trypsin (0.01 μg/well) and the rate of substrate hydrolysis continuously recorded at λex 360 nm, λem 480 nm using a FLUOstar Optima microplate reader (BMG Labtech). The resultant inhibition progress curve for the putative protease inhibitors were analysed according to the kinetic models developed by Tian and Tsou ([Tian and Tsou, 1982]) and Walker and Elmore ([Walker and Elmore, 1984]), for irreversible inhibitors, using GRAFIT (Erithacus Software) as described previously ([Ferguson et al., 2016]).
# [2] = test system: chymotrypsin; experiment: Off-target fluorogenic substrate assay, chymotrypsin; type: biochemical; conditions: for inhibition of chymotrypsin relative to controls: 50 μM (highest concentration tested)
# Method: as §1
# [3] = target: T2, matriptase (Homo sapiens, UniProt Q9Y5Y6); experiment: Activity-based probe labelling of matriptase; type: binding; conditions: 30 min, 37°C; band at 26 kDa
# T2 construct: purchased R and D Systems
# T2 sequence (Q9Y5Y6 615-855 limits assumed): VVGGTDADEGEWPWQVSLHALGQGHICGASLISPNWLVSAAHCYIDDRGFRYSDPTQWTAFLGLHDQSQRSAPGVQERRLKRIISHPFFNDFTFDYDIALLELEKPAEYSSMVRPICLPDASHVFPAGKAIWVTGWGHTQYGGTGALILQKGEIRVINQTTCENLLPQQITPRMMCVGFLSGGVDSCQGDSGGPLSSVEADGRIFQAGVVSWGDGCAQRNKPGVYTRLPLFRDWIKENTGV
# Method: (§2) Samples of recombinant protease (trypsin, human airway trypsin-like protease (HAT), matriptase, thrombin or neutrophil elastase, as indicated in the relevant figure legends) were treated with putative ABPs at a concentration of 50 μM, for 30 min, at 37°C. A control sample was prepared by treating recombinant protease with solvent control only. A further sample was prepared where Cbz-Arg^P(OPh)2 was added 30 min prior to the addition of the ABP under examination. […] All treated samples were then denatured with SDS-containing reducing treatment buffer (10 min at 95°C), followed by resolution by SDS-PAGE and subjected to Western blotting. Note, only stable covalent bonds between the ABP and protease active site would survive the harsh denaturing conditions involved in the resolution process. Resolved proteins were then transferred on to nitrocellulose membrane and labelled with streptavidin-HRP. The ABP-protease complex was then visualised following treatment with Luminata Forte HRP substrate.
# [4] = test system: trypsin-like proteases in American cockroach extract; experiment: ABP of American cockroach extract; type: binding, Periplaneta americana; conditions: probe 50 μM, 30 min, 37°C
# Method: (§3) Cockroach extract was probed with NAP858 (50 μM) (± heat inactivation at 95°C, for 10 min), for 30 min, at 37°C. Samples were then denatured with SDS-containing reducing treatment buffer (10 min/95°C), followed by resolution by SDS-PAGE and protein transfer unto nitrocellulose membrane which was incubated with streptavidin-HRP (1 in 20,000). The membrane was visualised following treatment with Luminata Forte HRP substrate.
# (§4) Removal of endogenous biotinylated proteins present in the cockroach extract was performed in some experiments to improve clarity of the Western blots obtained. Neutravidin agarose beads were washed three times with 1 ml wash buffer (150 mM NaCl, 50 mM Tris, 1 mM EGTA, 1% (v/v) NP-40, pH 7.4) then resuspended in PBS (pH 7.4). These neutravidin beads were then used to bind and remove (pre-clear) endogenous biotinylated proteins present in the cockroach extract. This involved rotation of the bead-cockroach extract mix at 4°C for 30 min followed by centrifugation to enable collection of the pre-cleared supernatant fraction. The bead fraction containing bound endogenous biotinylated proteins from cockroach extract was discarded. The supernatant was then probed with NAP858 (50 μM) (±Cbz-Arg^P(OPh)2), for 30 min, at 37°C, followed by addition of freshly washed neutravidin agarose beads. […]
# [5] = target: T3, thrombin (Homo sapiens, UniProt P00734); experiment: Activity-based probe labelling of thrombin; type: binding; conditions: 30 min, 37°C; heavy chain 31 kDa
# T3 construct: purchased R and D Systems
# Method: as §2
# [6] = test system: trypsin-like proteases in German cockroach extract; experiment: ABP of German cockroach extract; type: binding, Blattella germanica; conditions: probe 50 μM, 30 min, 37°C
# Method: as §3, §4
# [7] = test system: trypsin; experiment: Off-target fluorogenic substrate assay, trypsin; type: biochemical; conditions: across the range of concentrations studied, vs chymotrypsin and NE
# Method: as §1
# [8] = test system: trypsin; experiment: Activity-based probe labelling of trypsin (SDS-PAGE, Western blot, streptavidin-HRP); type: binding; conditions: probe 50 μM, 30 min, 37°C
# Method: as §2
# [9] = target: T4, human airway trypsin-like protease (HAT) (Homo sapiens, UniProt O60235); experiment: Activity-based probe labelling of HAT; type: binding; conditions: 30 min, 37°C; band at 25 kDa
# T4 construct: purchased R and D Systems
# Method: as §2
# [10] = target: T5, neutrophil elastase (Homo sapiens, UniProt P08246); experiment: Off-target fluorogenic substrate assay, neutrophil elastase; type: biochemical; conditions: 50 μM (highest concentration tested); read-out: inhibition of NE (decrease in activity) relative to controls
# T5 construct: purchased Calbiochem
# T5 sequence (P08246 30-267): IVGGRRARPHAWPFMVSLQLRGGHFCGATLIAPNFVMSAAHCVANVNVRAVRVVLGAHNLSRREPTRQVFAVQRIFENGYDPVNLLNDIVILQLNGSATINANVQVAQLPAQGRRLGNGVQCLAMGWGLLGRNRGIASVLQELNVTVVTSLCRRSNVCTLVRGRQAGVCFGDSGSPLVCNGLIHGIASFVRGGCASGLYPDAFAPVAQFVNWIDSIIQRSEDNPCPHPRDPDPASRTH
# Method: as §1
# [11] = test system: trypsin; experiment: Click chemistry labelling of trypsin with rhodamine-azide; type: binding; conditions: trypsin 1 μg
# Method: (§5) Samples pre-treated with competitive inhibitor (Cbz-Arg^P(OPh)2 for trypsin and Cbz-Val^P(OPh)2 for neutrophil elastase) for 30 min prior to addition of NAP884, were included for comparison. Following treatment with NAP884, DMSO (25% v/v final concentration), rhodamine-X azide (60 µM final concentration), copper (II)-TBTA complex (1 mM final concentration) and freshly prepared sodium ascorbate (1 mM final concentration) were added. The samples were mixed and incubated at room temperature in the dark for 1 h with gentle agitation. Samples were then denatured with SDS-containing reducing treatment buffer (10 min at 95°C), followed by resolution by SDS-PAGE and visualisation under UV light.
# [12] = target: T5, neutrophil elastase; experiment: Click chemistry labelling of neutrophil elastase with rhodamine-azide; type: binding; conditions: NE 1 μg, 30 min, 37°C
# Method: as §5, with “Samples of recombinant protease (trypsin and neutrophil elastase) were treated with alkyne-containing probe NAP884 at a concentration of 50 μM, for 30 min at 37°C. Samples pre-treated” for “Samples pre-treated”
# [13] = target: T1, human trypsin; design: method as in PMID 10611275; conditions: ref [30]; cited from earlier work
# [14] = test system: HAT; design: method as in Reihill et al., 2016; conditions: in words; ref Reihill et al., 2016; cited from earlier work
# [15] = target: T2, matriptase; design: method as in Reihill et al., 2016; conditions: in words; ref Reihill et al., 2016; cited from earlier work
# [16] = PBS pH 7.4, 37°C, 50 μM Cbz-Gly-Gly-Arg-AMC, ±S.E.M., three determinations, read-out: Ki
# [17] = PBS pH 7.4, 37°C, ±S.E.M., three determinations
# T4 sequence (O60235 187-418 limits assumed): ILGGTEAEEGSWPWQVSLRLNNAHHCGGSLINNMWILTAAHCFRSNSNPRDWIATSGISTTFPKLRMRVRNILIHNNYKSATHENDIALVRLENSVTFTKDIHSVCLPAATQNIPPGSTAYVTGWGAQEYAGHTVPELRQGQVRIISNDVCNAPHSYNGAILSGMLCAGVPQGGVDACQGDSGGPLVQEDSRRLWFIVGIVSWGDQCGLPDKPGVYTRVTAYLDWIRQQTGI
# T4 sequence (O60235 44-186 partner limits assumed): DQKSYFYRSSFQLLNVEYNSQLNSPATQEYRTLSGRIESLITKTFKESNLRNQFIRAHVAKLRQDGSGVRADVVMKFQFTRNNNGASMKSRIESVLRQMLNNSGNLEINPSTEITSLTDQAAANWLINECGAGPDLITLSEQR
Structure (SMILES),"Ki [1, 16] [µM]","k3 [1, 17]","k3/Ki [1, 17]",inhibition at 50 µM [10] [%],inhibition of chymotrypsin relative to controls [2] [%],selectivity of action for trypsin [7],labelling of trypsin [8],further results
N=C(N)NCCCN(CC(=O)NCC(=O)NCC(=O)NCCCCCC(=O)N[C@@H](CCCCNC(=O)CCCC[C@@H]1SC[C@@H]2NC(=O)N[C@@H]21)C(=O)O)C(=O)n1cncn1 [NAP851] (X1-[Gly(N-(CH2)3-guanidino)]GG[Ahx]K(Biotin)-OH; N-terminus assumed),7.56,0.160 (±0.020) min^−1,2.46 (±0.858) x 10^4 M^−1 min^−1,,,,,"substrate turnover at prolonged incubation ([1]; progress curves, 60 min incubation): slight increase in fluorescence, due to residual substrate turnover; Ki ([1]; read-out: Ki): ~7.6 µM; k3/Ki fold smaller than NAP858 ([1]; trypsin): ~8 fold; k3/Ki fold smaller than NAP897/NAP884 ([1]; trypsin): ~4 fold; k3/Ki fold smaller than NAP966 ([1]; trypsin): ~6 fold"
N=C(N)NCCCN(CC(=O)NCC(=O)NCC(=O)NCCCOCCOCCOCCCNC(=O)CCCC[C@@H]1SC[C@@H]2NC(=O)N[C@@H]21)C(=O)ON1C(=O)CCC1=O [NAP858],0.226,0.473 (±0.101) min^−1,2.06 (±0.884) x 10^6 M^−1 min^−1,< 10,< 10,pronounced selectivity of action in inhibiting trypsin,labelling of a single protein band corresponding to the correct molecular mass of trypsin,"labelling of matriptase [3]: does indeed function as an AP for both proteases; bands detected in American cockroach extract [4]: single, intense band with an apparent molecular mass of 25 kDa; labelling of thrombin [5]: can act as an AP for thrombin; bands detected in B. germanica extract [6]: close doublet of protein bands of similar molecular mass (≈25 kDa); labelling of HAT [9]: does indeed function as an AP for both proteases"
N=C(N)NCCCN(CC(=O)NCC(=O)NCC(=O)NCCCCCC(=O)N[C@@H](CCCCNC(=O)CCCC[C@@H]1SC[C@@H]2NC(=O)N[C@@H]21)C(=O)O)C(=O)Oc1c(F)c(F)c(F)c(F)c1F [NAP966] (X4-[Gly(N-(CH2)3-guanidino)]GG[Ahx]K(Biotin)-OH),,0.401 (±0.007) min^−1,1.92 (±0.250) x 10^5 M^−1 min^−1,,,,,"Ki ([1]; Ki): ~2.1 µM; Ki ([1]; Ki, PBS pH 7.4, 37°C, 50 μM Cbz-Gly-Gly-Arg-AMC, ±S.E.M., three determinations): 2.12 µM"
N=C(N)NCCC[C@H](NC(=O)CCC(=O)NCCCOCCOCCOCCCNC(=O)CCCC[C@@H]1SC[C@@H]2NC(=O)N[C@@H]21)P(=O)(Oc1ccccc1)Oc1ccccc1 [QUB-TL1],,,,,,,,Ki [13]: 0.174 µM; k3 [13]: 0.284 min⁻¹; k3/Ki [13]: 27300 M⁻¹ s⁻¹; inhibition of HAT [14]: potent inhibitor; inhibition of matriptase [15]: potent inhibitor

# Further lines, with some results ahead:
"Ki [1, 16] [µM]","k3 [1, 17]","k3/Ki [1, 17]",inhibition at 50 µM [10] [%],Structure (SMILES),inhibition of chymotrypsin relative to controls [2] [%],selectivity of action for trypsin [7],labelling of trypsin [8],further results
0.42,0.528 (±0.064) min^−1,1.34 (±0.351) x 10^6 M^−1 min^−1,~50,C#Cc1cccc(NC(=O)CCCC(=O)NCCCC[C@H](NC(=O)CCCCCNC(=O)CNC(=O)CNC(=O)CN(CCCNC(=N)N)C(=O)ON2C(=O)CCC2=O)C(=O)O)c1 [NAP884] (X2-[Gly(N-(CH2)3-guanidino)]GG[Ahx]K([Glutaryl-X3])-OH),,pronounced selectivity of action in inhibiting trypsin,,detection of trypsin ([11]; probe 1 μM): not detectable; detection of trypsin ([11]; probe 10 μM): enabled the detection of trypsin; detection of trypsin ([11]; probe 50 μM): enabled the detection of trypsin; inhibitory behaviour against chymotrypsin ([2]; in words): similarly discriminating inhibitory behaviour against trypsin compared to chymotrypsin; labelling of NE [12]: complete absence of labelling of NE
0.663,0.741 (±0.225) min^−1,1.35 (±0.376) x 10^6 M^−1 min^−1,< 10,N=C(N)NCCCN(CC(=O)NCC(=O)NCC(=O)NCCCCCC(=O)N[C@@H](CCCCNC(=O)CCCC[C@@H]1SC[C@@H]2NC(=O)N[C@@H]21)C(=O)O)C(=O)ON1C(=O)CCC1=O [NAP897] (X2-[Gly(N-(CH2)3-guanidino)]GG[Ahx]K(Biotin)-OH),< 10,pronounced selectivity of action in inhibiting trypsin,labelling of a single protein band corresponding to the correct molecular mass of trypsin,
